Experimental data taken from ChEMBL document CHEMBL1201862, “PubChem BioAssay data set” (2004).
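These data come from cells grown in 96-well plates and exposed to compound for 48 hours at five concentrations. At the GI50, growth is halved.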 The source made the active and inactive calls. No stated cut-off is given here; in the data, active = GI50 up to about 1.1 µM and inactive = higher. Where a SMILES comes first, the peptide text is derived from it. The star is where a group is joined. Boc = CC(C)(C)OC(=O)*

Columns and labels:
Experiment in all cases: DTP human tumour cell line panel, 48 h
CAKI-1 = tested on: CAKI-1
SK-MEL-28 = tested on: SK-MEL-28
786-0 = tested on: 786-0
A549 = tested on: A549
RPMI-8226 = tested on: RPMI-8226
MCF7 = tested on: MCF7
HOP-92 = tested on: HOP-92
SNB-75 = tested on: SNB-75
K562 = tested on: K562
DU-145 = tested on: DU-145
SR = tested on: SR
NCI-H226 = tested on: NCI-H226
U-251 = tested on: U-251
UACC-62 = tested on: UACC-62
Hs-578T = tested on: Hs-578T
SN12C = tested on: SN12C
NCI-H460 = tested on: NCI-H460
SW-620 = tested on: SW-620
CCRF-CEM = tested on: CCRF-CEM
HL-60 = tested on: HL-60

Measured: GI50

C[N+](C)(N)Cc1csc(-c2ccc(Cl)cc2)n1
inactive: CAKI-1 > 100 µM | SK-MEL-28 > 100 µM | 786-0 > 100 µM | A549 71.8 µM | RPMI-8226 > 100 µM | MCF7 > 100 µM | HOP-92 > 100 µM | SNB-75 42.4 µM | K562 > 100 µM | DU-145 > 100 µM | SR > 100 µM | NCI-H226 48.2 µM | U-251 > 100 µM | UACC-62 > 100 µM | Hs-578T 23.9 µM | SN12C 34.8 µM | NCI-H460 > 100 µM | SW-620 > 100 µM

CC(=O)Oc1ccn2nc(C)c(Cc3c(C)nn4ccc(OC(C)=O)cc34)c2c1
inactive: CAKI-1 51.8 µM | SK-MEL-28 > 100 µM | 786-0 > 100 µM | A549 > 100 µM | MCF7 > 10 µM | HOP-92 > 100 µM | CCRF-CEM 27.9 µM | SNB-75 54.8 µM | K562 37.8 µM | DU-145 > 100 µM | SR > 100 µM | NCI-H226 > 100 µM | U-251 62.7 µM | UACC-62 98.2 µM | Hs-578T 32.4 µM | SN12C > 100 µM | NCI-H460 50.9 µM | HL-60 39.1 µM | SW-620 > 100 µM

N#CCc1nc(Cc2ccccc2)n[nH]1
inactive: CAKI-1 > 100 µM | SK-MEL-28 > 100 µM | 786-0 > 100 µM | A549 > 100 µM | MCF7 > 100 µM | HOP-92 > 100 µM | CCRF-CEM > 100 µM | SNB-75 > 100 µM | K562 > 100 µM | DU-145 > 100 µM | SR > 100 µM | U-251 > 100 µM | UACC-62 > 100 µM | Hs-578T > 100 µM | SN12C > 100 µM | NCI-H460 > 100 µM | HL-60 > 100 µM | SW-620 > 100 µM

CCOC(=O)[C@@]12C[C@](/C=C/OC)(O[Si](C)(C)C)[C@@]13c1cc(OC)c(OC)cc1CCN3C(=O)C2=O
inactive: CAKI-1 > 100 µM | SK-MEL-28 > 100 µM | 786-0 > 100 µM | A549 > 100 µM | RPMI-8226 > 100 µM | MCF7 > 100 µM | HOP-92 > 100 µM | CCRF-CEM > 100 µM | SNB-75 > 100 µM | K562 > 100 µM | DU-145 > 100 µM | SR > 100 µM | NCI-H226 > 100 µM | U-251 > 100 µM | UACC-62 > 100 µM | Hs-578T > 100 µM | SN12C > 100 µM | NCI-H460 > 100 µM | SW-620 > 100 µM

COC(=O)c1c(O)ccc2c1c1c(n2Cc2cc(OC)cc(OC)c2)C(=O)c2ccccc2C1
inactive: CAKI-1 21.1 µM | SK-MEL-28 16.1 µM | 786-0 92 µM | A549 36.2 µM | RPMI-8226 7.82 µM | MCF7 23.7 µM | CCRF-CEM 18.2 µM | SNB-75 4.7 µM | K562 66.8 µM | DU-145 53.3 µM | SR 13 µM | NCI-H226 93.3 µM | U-251 47.8 µM | UACC-62 49.2 µM | Hs-578T 87.3 µM | SN12C 29.5 µM | NCI-H460 31 µM | HL-60 > 100 µM | SW-620 51.8 µM

CC(NC(=O)C1CCCN1C(=O)CNC(=O)OC(C)(C)C)C(=O)O (stereo not drawn) (Boc-Gly-Pro-Ala-OH; configuration not given here)
inactive: CAKI-1 > 100 µM | SK-MEL-28 > 100 µM | 786-0 > 100 µM | A549 > 100 µM | RPMI-8226 > 100 µM | MCF7 > 100 µM | HOP-92 62.5 µM | SNB-75 > 100 µM | K562 > 100 µM | DU-145 > 100 µM | SR > 100 µM | NCI-H226 > 100 µM | U-251 > 100 µM | UACC-62 > 100 µM | Hs-578T > 100 µM | SN12C > 100 µM | NCI-H460 > 100 µM | SW-620 > 100 µM

COC(=O)C1=C(O)C(C(=O)OC)[C@@]2(O)[C@@H](C(=O)OC)C(c3ccc(OC(=O)/C(=C/c4ccccc4)c4ccccc4)cc3)C[C@@H]1[C@@H]2C(=O)OC (stereo not given in full)
inactive: CAKI-1 11.9 µM | SK-MEL-28 81.5 µM | 786-0 6.46 µM | A549 69.2 µM | MCF7 10.5 µM | HOP-92 14.4 µM | CCRF-CEM 4.9 µM | SNB-75 12.1 µM | K562 9.25 µM | DU-145 20.5 µM | SR 6.73 µM | NCI-H226 9.86 µM | U-251 11.2 µM | UACC-62 3.47 µM | Hs-578T 27.7 µM | SN12C 30.8 µM | NCI-H460 5.21 µM | HL-60 17.4 µM | SW-620 8.09 µM
